Laboratory results as given in ChEMBL document CHEMBL1201862, “PubChem BioAssay data set” (2004).
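These data come from cells grown in 96-well plates and exposed to compound for 48 hours at five concentrations. At the GI50, growth is halved.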 Active and inactive are the calls of the source. Rule as the data show it: active = GI50 up to about 1.1 µM and inactive = higher.

Assays:
Experiment in all cases: DTP human tumour cell line panel, 48 h
[1] = test system: A549
[2] = test system: BT-549
[3] = test system: DU-145
[4] = test system: HOP-92
[5] = test system: IGROV-1
[6] = test system: LOX IMVI
[7] = test system: MCF7
[8] = test system: MDA-MB-231
[9] = test system: MDA-MB-435
[10] = test system: Malme-3M
[11] = test system: NCI-H23
[12] = test system: NCI-H522
[13] = test system: NCI/ADR-RES
[14] = test system: SK-MEL-2
[15] = test system: SK-OV-3
[16] = test system: SNB-19
[17] = test system: SW-620
[18] = test system: T47D
[19] = test system: TK-10
[20] = test system: UO-31

Measured: GI50

COC(=O)c1ccccc1Nc1nc(-c2cccs2)nc2cc(OC)c(OC)cc12
inactive: [1] 54 µM | [2] > 100 µM | [3] 92.3 µM | [4] 44.5 µM | [5] 14.7 µM | [6] 39.4 µM | [7] 72.3 µM | [8] 28.9 µM | [9] > 100 µM | [10] 61 µM | [11] 17.4 µM | [12] 59.7 µM | [13] 57 µM | [14] 64.7 µM | [15] 55.7 µM | [16] 33.1 µM | [17] > 100 µM | [18] 37 µM | [19] 28.3 µM | [20] > 100 µM

CNC1=C/C(=N/C2=CC(=N/C(=C\C#N)C(C)(C)O)/OC2(C)C)OC1(C)C
inactive: [1] 15.5 µM | [2] 29.6 µM | [3] 12 µM | [4] 11.9 µM | [5] 6.52 µM | [6] 5.51 µM | [7] 5.82 µM | [8] 9.95 µM | [9] 22.6 µM | [10] 25.2 µM | [11] 33.3 µM | [12] 13 µM | [13] 40.4 µM | [14] 44.4 µM | [15] 17.1 µM | [16] 33 µM | [17] 5.4 µM | [18] 6.78 µM | [19] 21.3 µM | [20] 5.77 µM

COc1ccc(-n2sc3ncccc3c2=O)cc1
inactive: [1] 69.5 µM | [2] 20.4 µM | [3] 39.4 µM | [4] 27.7 µM | [5] 23.6 µM | [6] 30.8 µM | [7] 19.9 µM | [8] 21.7 µM | [9] 28.8 µM | [10] 15.8 µM | [11] 19.3 µM | [12] 17.5 µM | [13] 25 µM | [14] > 100 µM | [15] > 100 µM | [16] > 100 µM | [17] 32.1 µM | [18] 17.7 µM | [19] 18.9 µM | [20] 19.1 µM

CC[C@@]12CCCN3CC[C@]4(c5cccc(OC)c5N(C(C)=O)[C@@H]4CC1)[C@H]32 [ASPIDOSPERMINE]
inactive: [1] > 100 µM | [2] 86.9 µM | [3] > 100 µM | [4] 35.6 µM | [5] 24.2 µM | [6] 30.6 µM | [7] 63.1 µM | [8] > 100 µM | [9] 38.3 µM | [10] > 100 µM | [11] > 100 µM | [12] 32.3 µM | [13] > 100 µM | [14] 90.4 µM | [15] > 100 µM | [16] > 100 µM | [17] > 100 µM | [18] > 100 µM | [19] 56.5 µM | [20] 68.5 µM

CCOC(=O)Nc1ccc2c(c1)N(C(=O)CCN(CC)CC)c1ccccc1S2 [ETHACIZINE]
inactive: [1] 34.3 µM | [2] 28.1 µM | [3] 50.1 µM | [4] 18.9 µM | [5] 40.5 µM | [6] 17.6 µM | [7] 25.3 µM | [8] 26.1 µM | [9] 29 µM | [10] 18.7 µM | [11] 31.8 µM | [12] 65.8 µM | [13] 45.2 µM | [14] 22 µM | [15] 35 µM | [16] 47 µM | [17] 25.4 µM | [18] 27.4 µM | [19] 32.9 µM | [20] 27.5 µM

O=C(O)CNC(=O)c1ccccc1O [SALICYLURIC ACID]
inactive: [1] > 100 µM | [2] > 100 µM | [3] > 100 µM | [4] > 100 µM | [5] > 100 µM | [6] > 100 µM | [7] > 100 µM | [8] > 100 µM | [9] > 100 µM | [10] > 100 µM | [11] > 100 µM | [12] > 100 µM | [13] > 100 µM | [14] > 100 µM | [15] > 100 µM | [16] > 100 µM | [17] > 100 µM | [18] > 100 µM | [19] > 100 µM | [20] > 100 µM
